Data as given in the supplement of paper PMC10307832.

Experiments:
Test in all cases: relative viability (nuclei count vs DMSO), 5 days (fraction); higher = more cells survive
[1] = compound: Cc1ccc2nc(NCCN)c3ncc(C)n3c2c1 + Cc1nc(NC(=O)N2CCC[C@H]2C(N)=O)sc1-c1ccnc(C(C)(C)C(F)(F)F)c1 [Alpelisib] (partner 2 µM)
Procedure, shortened: (§1)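 Five library-drug doses in √10 steps were combined with a fixed anchor-drug dose, or a single drug was given alone, by pin tool to lung cancer cell lines in 1536-well plates the day after seeding. Nuclei were stained and counted after 5 days. Relative viability is the nuclei count in treated wells over that in vehicle wells, taken as the median of duplicate plates.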

[2] = compound: Cc1ccc2nc(NCCN)c3ncc(C)n3c2c1
Procedure, shortened: (§2)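 After an overnight hold at 37 °C, lung cancer cell lines in 1536-well plates were pinned with five library-drug doses (not always all listed), each √10 from the next, on vehicle-anchored plates. The cells stayed 5 days without fresh medium, then a one-step fix, permeabilisation and Hoechst stain preceded 4× imaging and MetaXpress nuclear counts. A plate passed only with control CV under 25% and at least one doubling. Viability is the median, over plates, of treated-well nuclei relative to vehicle-well nuclei.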

[3] = compound: O=C(/C=C/c1ccccc1)NC(NC(=S)Nc1cccc2cccnc12)C(Cl)(Cl)Cl [Salubrinal]
Procedure, shortened: as §2

[4] = compound: O=C(/C=C/c1ccccc1)NC(NC(=S)Nc1cccc2cccnc12)C(Cl)(Cl)Cl [Salubrinal] + Nc1nc2[nH]cc(CCc3ccc(C(=O)N[C@@H](CCC(=O)O)C(=O)O)cc3)c2c(=O)[nH]1 [Pemetrexed] (partner 0.2 µM)
Procedure, shortened: as §1

Cell Line | relative viability ([1]; first compound 0.04 µM) | relative viability ([1]; first compound 0.1265 µM) | relative viability ([1]; first compound 0.4 µM) | relative viability ([1]; first compound 1.265 µM) | relative viability ([1]; first compound 4 µM) | relative viability ([2]; 0.04 µM) | relative viability ([2]; 0.1265 µM) | relative viability ([2]; 0.4 µM) | relative viability ([2]; 1.265 µM) | relative viability ([2]; 4 µM) | relative viability ([3]; 0.08 µM) | relative viability ([3]; 0.253 µM) | relative viability ([3]; 0.8 µM) | relative viability ([3]; 2.53 µM) | relative viability ([3]; 8 µM) | relative viability ([4]; first compound 0.08 µM) | relative viability ([4]; first compound 0.253 µM) | relative viability ([4]; first compound 0.8 µM) | relative viability ([4]; first compound 2.53 µM) | relative viability ([4]; first compound 8 µM)
NCI-H1703 | 0.472 | 0.36 | 0.275 | 0.388 | 0.348 | 1.07 | 1.07 | 1.01 | 1.16 | 0.91 | 1.12 | 1.03 | 0.994 | 0.881 | 0.942 | – | – | – | – | –
NCI-H1437 | 0.926 | 0.914 | 1.02 | 0.904 | 0.907 | 1.02 | 0.982 | 0.988 | 0.939 | 0.873 | 0.992 | 0.922 | 1.12 | 1.02 | 0.968 | 0.413 | 0.273 | 0.292 | 0.322 | 0.297
SK-LU-1 | 1.11 | 0.961 | 1.1 | 1.01 | 0.937 | 1.06 | 1 | 1.03 | 1.05 | 0.976 | 1.11 | 0.905 | 1.19 | 1.11 | 0.878 | 0.994 | 0.721 | 1.02 | 0.886 | 0.94
H3255 | 0.77 | 0.613 | 0.705 | 0.659 | 0.593 | 1.02 | 0.9 | 0.886 | 1.06 | 0.843 | 1.07 | 0.965 | 1.11 | 0.958 | 0.949 | 0.562 | 0.582 | 0.558 | 0.557 | 0.604
Calu-6 | 1.05 | 0.923 | 1.01 | 1.04 | 0.719 | 1.03 | 0.986 | 0.974 | 1.02 | 0.854 | 1.17 | 0.925 | 1.01 | 0.981 | 0.936 | – | – | – | – | –
NCI-H1792 | 0.696 | 0.678 | 0.615 | 0.527 | 0.661 | 0.984 | 0.987 | – | 0.963 | 0.826 | 1.05 | – | 1.32 | 1.01 | 0.811 | 1.07 | – | 1.24 | 0.795 | 0.572
NCI-H2170 | 0.844 | 0.805 | 0.801 | 0.805 | 0.67 | 0.961 | 0.976 | 0.995 | 0.887 | 0.978 | 1.21 | 0.984 | 1.04 | 0.996 | 0.935 | 0.258 | 0.273 | 0.318 | 0.258 | 0.257
NCI-H1650 | – | – | – | – | – | 0.983 | 0.903 | 0.865 | 0.915 | 0.772 | 1.1 | 0.795 | 1.03 | 0.893 | 0.912 | 0.354 | 0.3 | 0.398 | 0.383 | 0.376
NCI-H727 | 0.54 | 0.618 | 0.62 | 0.599 | 0.471 | 0.969 | 0.734 | 1.14 | 0.949 | 0.994 | 1.01 | 1.45 | 1.11 | 0.827 | 0.797 | – | – | – | – | –
EBC-1 | 1.04 | 0.734 | 0.795 | 0.643 | 0.617 | 1.08 | 0.976 | 0.934 | 0.946 | 0.79 | 1.02 | 0.923 | 1.12 | 0.887 | 0.902 | – | – | – | – | –
NCI-H2342 | – | – | – | – | – | 1.19 | 1.08 | 0.989 | 1.08 | 0.841 | 1.04 | 0.88 | 1.07 | 1.03 | 0.858 | 0.722 | 0.772 | 0.937 | 0.758 | 0.826
NCI-H1623 | – | – | – | – | – | 1.01 | 0.838 | 0.961 | 0.887 | 0.937 | 1.08 | 1.18 | 0.949 | 1.1 | 0.997 | – | – | – | – | –
NCI-H1299 | 1.03 | 1.1 | 1.05 | 1.08 | 0.993 | 1.01 | 0.986 | 0.969 | 0.972 | 0.928 | 1.03 | 1.06 | 1 | 0.996 | 0.987 | – | – | – | – | –
NCI-H522 | – | – | – | – | – | 0.882 | 1.04 | 0.909 | 1.03 | 1.02 | 0.947 | 0.819 | 1.1 | 1.02 | 0.921 | 1.24 | 0.933 | 1.09 | 1.06 | 1.07
A549 | 0.978 | 0.741 | 0.722 | 1.01 | 0.611 | 1.09 | 0.927 | 1.01 | 0.958 | 0.879 | 1.2 | 0.855 | 1.03 | 0.99 | 0.924 | – | – | – | – | –
NCI-H1648 | – | – | – | – | – | 0.858 | 0.903 | 0.918 | 0.615 | 0.679 | 0.921 | 0.788 | 0.741 | 0.741 | 0.356 | 0.843 | 0.637 | 0.759 | 0.705 | 0.584
SW 900 | – | – | – | – | – | 0.878 | 0.897 | 0.584 | 0.779 | 0.941 | 1.06 | 0.718 | 0.941 | 0.933 | 1.04 | 0.508 | 0.423 | 0.505 | 0.485 | 0.468
IA-LM | 0.762 | 0.738 | 0.682 | 0.913 | 0.804 | 0.989 | 0.984 | 0.761 | 0.756 | 0.743 | 0.983 | 0.9 | 1.15 | 0.903 | 0.922 | – | – | – | – | –
ChaGo-K-1 | – | – | – | – | – | 0.958 | 1.01 | 1.05 | 1.01 | 0.874 | 1.05 | 0.912 | 1.15 | 1.01 | 0.922 | 0.266 | 0.274 | 0.241 | 0.253 | 0.375
ABC-1 | 1.15 | 1.27 | 1.18 | 1.15 | 0.742 | 0.987 | 1.01 | 0.97 | 1.04 | 0.822 | 0.978 | 0.909 | 0.902 | 1.01 | 0.849 | – | – | – | – | –
